Holding throughout (type): binding
The target in assay [1] is T1, RNase A (Bos taurus, UniProt P61823).
T1 sequence (P61823 27-150): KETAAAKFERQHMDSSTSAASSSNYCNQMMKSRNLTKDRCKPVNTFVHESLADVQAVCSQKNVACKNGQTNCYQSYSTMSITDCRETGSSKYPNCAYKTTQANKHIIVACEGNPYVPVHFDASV
The assay can be described thus: ITC. A general note: Isothermal titration calorimetry measures the heat released or taken up as one component is titrated into another.

Assay [2] has as its target T2, RNase A (Bos taurus, UniProt P61823, A135G).
T2 sequence (P61823 27-150 A135G): T1 sequence (P61823 27-150) with A109G
Kind of assay: crystal structure.

The target in assay [3] is T2, RNase A. Kind of assay: crystal structure. The source holds these as a separate data set.

SMILES strings stand for the structures. Residue numbers refer to the chain shown, from its start. Where two headings read alike, the source gives them in different places.

Broadly, the Kd is the equilibrium constant for the complex coming apart.

In the case of `Nc1ncnc2c1ncn2[C@@H]1O[C@H](COP(=O)(O)O)[C@@H](O)[C@H]1O` [5′-AMP], the Kd in assay [1] worked out at 105 ± 1 µM; in assay [2], 440 ± 26 µM.

For `O=c1ccn([C@@H]2O[C@H](CO)[C@@H](OP(=O)(O)O)[C@H]2O)c(=O)[nH]1` [3′-UMP], the Kd in assay [1] stood at 67 ± 6 µM; in assay [3], 50 ± 8 µM.

These data come from paper PMC4680847 (Structure (London, England : 1993), 2015).
